Laboratory results published in patent US11690834B2, “Composition, uses, and methods of treating spinal disc degeneration through sonic hedgehog signaling pathway” (New York Society For the Relief Of The Ruptured and …, priority 2017, dated 2023).
“Also recorded” adds a separate entry of the source.

Tests used:
one-year-old mouse disc = settings: in vitro; cited from earlier work
[1] = tested on: SHH signaling pathway in the intervertebral disc; test: Intraperitoneal SAG in adult mice, real-time RT-qPCR of lumbar discs for SHH and its downstream targets; assay type: in vivo, mouse; settings: i.p., 10 mg/kg body weight, every day for seven days, vs water
Procedure: To test the potential for activation of SHH or SHH signaling for disc therapy and treatment of lower back pain, a small molecule agonist of hedgehog signaling pathway called SAG that activates the smoothened receptor downstream of the ligand was administered to mice. Adult mice were administered intraperitoneally either with water or SAG dissolved in water at a concentration of with 10 mg/kg body weight. The mice were treated every day for seven days. Next day, the lumbar discs were collected for RNA isolation and real-time RT-qPCR analysis for SHH and its downstream targets. […] Upregulation of SHH mRNA expression was also associated with an increase in the expression of its downstream targets Ptch1 and Gli1.

[2] = tested on: SHH signaling pathway in the intervertebral disc; test: as above; assay type: in vivo, mouse; settings: middle-aged mice, intraperitoneal injection

Compound	ECM production (one-year-old mouse disc)	increase in cell proliferation (one-year-old mouse disc)	stimulation of Hedgehog signaling (one-year-old mouse disc)	expression of ECM marker Col2 [1]	expression of ECM marker Sox9 [1]	expression of downstream target Gli1 [1]	expression of downstream target Ptch1 [1]	mRNA expression of SHH compared to controls [1]	expression of ECM protein ACAN [2]
O=C1Nc2cc(Br)ccc2/C1=C1/Nc2ccccc2/C1=N\O [BIO]	increased	Not observed	increased	–	–	–	–	–	–
CNC1CCC(N(Cc2cccc(-c3ccncc3)c2)C(=O)c2sc3ccccc3c2Cl)CC1 (stereo not drawn) [SAG]	–	–	–	increased expression; also recorded: upregulation	increased expression; also recorded: upregulation	increase; also recorded: upregulation	increase; also recorded: upregulation	increased; also recorded: up-regulation	upregulation
